Experimental data taken from patent US7687514B2, “Benzimidazole derivatives” (Banyu Pharmaceuticals Co., Ltd., priority 2002, dated 2010).
Like-named read-outs stand apart in the source and are kept apart here.

What was measured:
[1] = Brain/cerebrospinal fluid transport test; type: in vivo, male SD rats; details: rat, 2 hours after oral administration (10 mg/kg); for concentration at 2 h: male, SD
Procedure: Pharmacological Test 4 (Brain/Cerebrospinal Fluid Transport Test)
A test compound was orally or intravenously administered to male SD rats (7-10 weeks old, 200-400 g), and whole blood was collected from the abdominal aorta of said rats anesthetized with ether at predetermined time, using a heparin-treated syringe. Then, the head skin was cut open, and a dental 30 G needle was inserted between the cervical vertebrae, and it was further inserted into the cavum subarachnoideale. After 50 to 100 μL cerebrospinal fluid had been collected by a 1 ml-syringe through a tube connected to said dental 30 G needle, the brain was extracted. The blood sample was centrifuged (4° C., 6,000 r.p.m., 10 minutes) to collect the plasma, to which was added 3-fold amount of ethanol containing an internal standard, and the mixture was stirred. The brain sample was homogenized after addition of 2 ml water, an aliquot of the homogenate was taken and 3-fold amount of ethanol containing an internal standard was added thereto and stirred. The cerebrospinal fluid was stirred after adding 3-fold amount of ethanol containing an internal standard. The samples thus obtained were allowed to stand at −20° C. for 20 minutes, and then centrifuged (4° C., 12,000 g, 10 minutes). The supernatant was analyzed by LC/MS/MS, and the concentration of the test compound in the plasma, brain, and cerebrospinal fluid were measured by the method using a relative calibration curve.

[2] = Pharmacokinetics test (plasma concentration after oral or intravenous administration); type: in vivo; details: rat, male SD rats
Procedure: Pharmacological Test 3 (Pharmacokinetics Test)
A test compound was orally or intravenously administered to male SD rats (7-10 weeks old, 200-400 g) which abstained from food overnight. About 100 μL of blood was collected from the tail vein at predetermined time, using a heparinized capillary. The blood was centrifuged (4° C., 6,000 r.p.m., 10 minutes) to collect the plasma, to which was added 3-fold amount of ethanol containing an internal standard. The mixture was stirred, allowed to stand at −20° C. for 20 minutes, and then centrifuged (4° C., 10,000 r.p.m., 10 minutes). The supernatant was analyzed by LC/MS/MS, and the concentration of the test compound in the plasma was measured using a relative calibration curve.

human NPY Y5 receptor = biological target: T1, human NPY Y5 receptor (Homo sapiens, UniProt Q15761); test: NPY binding inhibition test ([125I]peptide YY binding to membranes of NPY Y5 receptor expressing cells); details: 25° C., 2 hours, membrane of NPY Y5 receptor expressing cells, read-out: IC50 against specific peptide YY binding
T1 construct: expressed in transfected cells; host or cells: COS-7, CHO and LM(tk-)
T1 sequence (Q15761 1-445): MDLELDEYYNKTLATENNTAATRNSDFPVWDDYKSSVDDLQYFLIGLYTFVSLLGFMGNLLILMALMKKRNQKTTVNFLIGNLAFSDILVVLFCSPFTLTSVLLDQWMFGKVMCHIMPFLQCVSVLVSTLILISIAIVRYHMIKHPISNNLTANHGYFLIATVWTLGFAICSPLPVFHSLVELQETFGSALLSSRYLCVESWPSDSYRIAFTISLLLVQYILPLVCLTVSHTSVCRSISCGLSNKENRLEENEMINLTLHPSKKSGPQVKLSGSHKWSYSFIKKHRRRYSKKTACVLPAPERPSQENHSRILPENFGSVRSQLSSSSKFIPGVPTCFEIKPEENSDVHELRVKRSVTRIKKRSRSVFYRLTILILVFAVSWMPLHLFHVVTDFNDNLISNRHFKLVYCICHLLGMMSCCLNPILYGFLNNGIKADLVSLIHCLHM
From the text: Pharmacological Test 1 (NPY Binding Inhibition Test)
cDNA sequence encoding human NPY Y5 receptor (c.f. International patent publication number WO96/16542) was cloned into expression vectors pcDNA3, pRc/RSV (made by Invitrogen Inc.) and pCI-neo (made by Promega Inc.). The expression vectors thus obtained were transfected to host cells COS-7, CHO and LM(tk-) (American Type Culture Collection) by cationic lipid method (Proceedings of the National Academy of Sciences of the United States of America, 84: 7413(1987)) to give NPY Y5 receptor expression cells.
A membrane sample prepared from the cells which expressed NPY Y5 receptor was incubated together with a test compound and [^125I]peptide YY (made by NEN) (20,000 cpm) in an assay buffer (25 mM Tris buffer, pH 7.4, containing 10 mM magnesium chloride, 1 mM phenylmethylsulfonyl fluoride, 0.1% bacitracin and 0.5% bovine serum albumin) at 25° C. for 2 hours, then filtered through a glass filter GF/C and washed with 5 mM Tris buffer (pH 7.4) containing 0.3% BSA. The radioactivity of the cake on the glass filter was measured. Non-specific binding was measured in the presence of 1 μM peptide YY, and a 50% Inhibitory Concentration (IC50) of the test compound against specific peptide YY binding was determined (Endocrinology, 131: 2090(1992)).

IC50 (human NPY Y5 receptor) [nM] | Structure (SMILES) | also measured
2.2 | O=C1OC2(CCC(c3nc4cnc(-c5ccccc5)nc4[nH]3)CC2)c2ccccc21 (stereo not drawn) [Example 6, trans-8-[3′-oxospiro[cyclohexane-1,1′(3′H)-isobenzofuran]-4-yl]-2-phenylpurine] | concentration at 2 h ([1]; cerebrospinal fluid, read-out: concentration in the cerebrospinal fluid): 33 nM; concentration at 2 h ([1]; plasma, read-out: concentration in the plasma): 2770 nM; concentration in the brain [1]: 1.10 nmol/g; bioavailability ([2]; oral or intravenous administration): 78%; half-life ([2]; read-out: half-life in the blood (converted)): 3 h
1.8 | O=C1OC2(CCC(c3nc4cnc(-c5ccccc5F)nc4[nH]3)CC2)c2ccccc21 (stereo not drawn) [Example 8, Trans-2-(2-fluorophenyl)-8-[3′-oxospiro[cyclohexane-1,1′(3′H)-isobenzofuran]-4-yl]purine] | 
2.9 | O=C1OC2(CCC(c3nc4cnc(-c5ccc(F)cc5)nc4[nH]3)CC2)c2cnccc21 (stereo not drawn) [Example 13, Trans-2-(4-fluorophenyl)-8-[3-oxospiro[6-azaisobenzofuran-1(3H),1′-cyclohexan]-4′-yl]purine] | 
2.7 | O=C1OC2(CCC(c3nc4cnc(-c5cc(F)ccc5F)nc4[nH]3)CC2)c2cnccc21 (stereo not drawn) [Example 17, Trans-2-(2,5-difluorophenyl)-8-[3-oxospiro[6-azaisobenzofuran-1(3H),1′-cyclohexan]-4′yl]purine] | 
2.3 | O=C1OC2(CCC(c3nc4cnc(-c5ccccc5F)nc4[nH]3)CC2)c2cnc(F)cc21 (stereo not drawn) [Example 20, Trans-8-[5-fluoro-3-oxospiro[6-azaisobenzofuran-1(3H),1′-cyclohexan]-4′-yl]-2-(2-fluorophenyl)purine] | 
0.72 | O=C1OC2(CCC(c3nc4ccc(-c5ccccc5F)nc4[nH]3)CC2)c2cnccc21 (stereo not drawn) [Example 27, Trans-5-(2-fluorophenyl)-2-[3-oxospiro[6-azaisobenzofuran-1(3H),1′-cyclohexan]-4′-yl]imidazo[4,5-b]pyridine] | 
